Experimental findings from patent US20040131686A1, “Composition and method for treatment of bacterial vaginal infections” (priority 2003, published 2004) are described below.

Structures can show the parent of a compound that is named as a salt.

Experiment [1] deals with Staphylococcus aureus (ATCC #6538). The experiment in a line: Zone of inhibition on agar plate inoculated with Staphylococcus aureus. In kind it is cell-based. How it is done: About 1 grams of each gelled composition was deposited on an agar plate that was previously inoculated with E. coli (ATCC #11229), a Gram-negative bacterium, and the plates were incubated for about 20 to about 28 hours at a temperature of about 35 to about 39° C. Antibacterial activity was evaluated by measuring the diameter of the zone of inhibition (i.e., a clear zone with no bacterial colonies present, measured in millimeters) around the deposited gel.
Similar plates were prepared wherein the inoculant was Staphylococcus aureus (ATCC #6538), a Gram-positive bacterium.
(§1) A commercially available vaginal cream formulation of benzydamine hydrochloride, TANTUM ROSA® cream, available from Angelini Pharmaceuticals, Rome, Italy was also evaluated, for comparison. According to the manufacturer's product literature TANTUM ROSA® cream contains about 0.5% benzydamine hydrochloride in a cream base containing propylene glycol, saturated triglycerides, ceteth 20, hydroxyethyl cellulose, sodium citrate dihydrate, citric acid monohydrate, benzoic acid, and purified water. In addition, a simple aqueous solution containing 0.5% by weight of benzydamine hydrochloride in deionized water was tested as a positive control. All materials were tested in triplicate.

Experiment [2] has as its system E. coli (ATCC #11229). The experiment in a line: Zone of inhibition on agar plate inoculated with E. coli. In kind it is cell-based. How it is done:
as §1, with “Antibacterial activity was evaluated by measuring the diameter of the zone of inhibition (i.e., a clear zone with no bacterial colonies present, measured in millimeters) around the deposited gel. A commercially” for “A commercially”, “available from […] Pharmaceuticals, Rome,” for “available from Angelini Pharmaceuticals, Rome,”

Setting [3] is: about 1 gram of composition on inoculated agar plate, about 20 to 28 hours, about 35 to 39° C., triplicate.

Turning to `CN(C)CCCOc1nn(Cc2ccccc2)c2ccccc12` [B-HCl, Benzydamine hydrochloride], the “Staphylococcus clear zone (diameter of zone of inhibition)” value in experiment [1] (setting [3]) is on record as 14 mm. Besides, in experiment [1] (inhibition test on agar plate), the “Antibacterial activity against Gram-positive bacteria (Staphylococcus aureus), in words” value was “effective”. Besides, in experiment [2] (setting [3]), the “E. coli clear zone (diameter of zone of inhibition)” value is given as 12 mm. The “Antibacterial activity against Gram-negative bacteria (E. coli), in words” value in experiment [2] (inhibition test on agar plate) is “effective”.
